Reference: patent US12441718B2, “Selective angiotensin II compounds” (VICORE PHARMA AB, priority 2021, dated 2025)
Values joined by “and” are separate entries in the source; they are usually repeats but may differ in a detail not shown here. Equal values may be shown once. Read-outs that look alike come from different tables or passages of the source.

Columns and labels:
[1] = Metabolic stability in pooled human liver microsomes; type: in vitro ADME; details: pooled human liver microsomes 0.5 mg/mL, 1 μM test compound, 37° C., * rows = mean of two runs; for half-life at 1 μM: human, pooled human liver microsomes
Description: Pooled human liver microsomes in PBS at a concentration of 0.5 mg/mL was incubated with or without 1 mM NADPH for 70 min at 37° C. Test compound was added after 10 minutes to a final concentration of 1 μM. Samples were withdrawn at 0, 5, 15 and 60 minutes and added to test tubes containing acetonitrile, to stop the reaction, and with terfenadine, used as internal standard. After centrifugation at 10 000×g for 5 minutes the supernatant was diluted 1:1 with 1% formic acid. Samples were separated on a reverse phase column and detected by triple quadrupole MSMS (Agilant model 6540). The concentration of the parent compound at the different time points was measured with an external standard curve using terfenadine as internal standard and the initial metabolic rate in the presence or absence of NADPH calculated.

[2] = target: T1, human recombinant AT2 receptor (Homo sapiens, UniProt P50052); assay: Binding to AT2 receptor, radiometric scintillation assay (Eurofins ITEM26); details: for Ki: seven-point dose-response curve
T1 construct: purchased Eurofins ITEM26 (protocol number)
T1 sequence (P50052 1-363): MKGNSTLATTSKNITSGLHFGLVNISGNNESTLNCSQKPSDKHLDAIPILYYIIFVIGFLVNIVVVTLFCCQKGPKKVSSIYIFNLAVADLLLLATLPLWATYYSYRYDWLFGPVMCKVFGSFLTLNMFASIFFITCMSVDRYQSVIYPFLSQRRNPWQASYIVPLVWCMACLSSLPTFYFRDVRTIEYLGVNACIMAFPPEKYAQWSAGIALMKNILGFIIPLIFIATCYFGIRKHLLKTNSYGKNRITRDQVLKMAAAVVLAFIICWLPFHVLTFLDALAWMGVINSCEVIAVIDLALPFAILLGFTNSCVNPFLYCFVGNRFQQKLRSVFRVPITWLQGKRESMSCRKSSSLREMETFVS

[3] = with 1 mM NADPH, read-out: T1/2, + NaDPH
[4] = without NADPH, read-out: T1/2, no NaDPH
[5] = ligand 125I CGP 42112A, * rows = mean of runs
[6] = test compounds at 1, 10, 100 and 1000 nM, ligand 125I CGP 42112A, * rows = mean of runs, read-out: AT2 GraFit IC50

Structure (SMILES)	half-life at 1 μM [1, 3]	half-life at 1 μM [1, 4]	T1/2, + NaDPH ([1]; with 1 mM NADPH)	T1/2, + NaDPH ([1]; with 1 mM NADPH, listed as Example 31*)	Ki [2, 5]	IC50 [2, 6]	T1/2, + NaDPH ([1]; with 1 mM NADPH, listed as Example 33*)	T1/2, + NaDPH ([1]; with 1 mM NADPH, listed as Example 34*)	IC50 ([2]; AT2 GraFit IC50, value in parentheses after <0.3, value printed in parentheses behind the bound <0.3)
CC(C)Cc1ccc(S(=O)(=O)Nc2ncccn2)c(-c2ccc(Cn3ccnc3C(C)(C)O)cc2)c1 [Example 15, 4′-((2-(2-Hydroxypropan-2-yl)-1H-imidazol-1-yl)methyl)-5-isobutyl-N-(pyrimidin-2-yl)-[1,1′-biphenyl]-2-sulfonamide]	> 1 h	> 1 h							
CC(C)Cc1cc(-c2ccc(Cn3ccnc3C(C)(C)C)cc2)c(S(=O)(=O)Nc2ncccn2)s1 [Example 16, 3-(4-((2-(tert-Butyl)-1H-imidazol-1-yl)methyl)phenyl)-5-isobutyl-N-(pyrimidin-2-yl)thiophene-2-sulfonamide]	> 1 h	> 1 h							
CC(C)Cc1ccc(S(=O)(=O)Nc2ncccn2)c(-c2ccc(Cn3ccnc3C(C)(C)C)cc2)c1 [Example 17, 4′-((2-(tert-Butyl)-1H-imidazol-1-yl)methyl)-5-isobutyl-N-(pyrimidin-2-yl)-[1,1′-biphenyl]-2-sulfonamide]	> 1 h	> 1 h							
COc1cnc(NS(=O)(=O)c2ccc(CC(C)C)cc2-c2ccc(Cn3ccnc3C(C)(C)C)c(F)c2)nc1 [Example 31, 4′-((2-(tert-Butyl)-1H-imidazol-1-yl)methyl)-3′-fluoro-5-isobutyl-N-(5-methoxy-pyrimidin-2-yl)-[1,1′-biphenyl]-2-sulfonamide]	0.783 h	> 1 h	0.583 h	0.683 h	1.21 nM and 1.84 nM and 1.53 nM	2.43 nM and 3.68 nM and 3.06 nM			
CC(C)Cc1ccc(S(=O)(=O)Nc2ccsn2)c(-c2ccc(Cn3ccnc3C(C)(C)C)cc2)c1 [Example 33, 4′-((2-(tert-Butyl)-1H-imidazol-1-yl)methyl)-5-isobutyl-N-(isothiazol-3-yl)-[1,1′-biphenyl]-2-sulfonamide]	0.2 h	> 1 h	0.217 h		1.13 nM and 7.18 nM and 4.16 nM	2.25 nM and 14.4 nM and 8.33 nM	0.208 h		
COc1cc(NS(=O)(=O)c2ccc(CC(C)C)cc2-c2ccc(Cn3ccnc3C(C)(C)C)cc2)nc(OC)n1 [Example 34, 4′-((2-(tert-Butyl)-1H-imidazol-1-yl)methyl)-N-(2,6-dimethoxypyrimidin-4-yl)-5-isobutyl-[1,1′-biphenyl]-2-sulfonamide]	0.283 h	> 1 h	0.183 h		38.3 nM and 24.5 nM and 31.4 nM	76.6 nM and 49 nM and 62.8 nM		0.233 h	
COc1cnc(NS(=O)(=O)c2ccc(CC(C)C)cc2-c2ccc(Cn3ccnc3C(C)(C)C)cc2)nc1 [Example 36, 4′-((2-(tert-Butyl)-1H-imidazol-1-yl)methyl)-5-isobutyl-N-(5-methoxypyrimidin-2-yl)-[1,1′-biphenyl]-2-sulfonamide]	0.7 h	> 1 h			5.99 nM	12 nM			
Cc1nccn1Cc1ccc(-c2cc(CC(C)C)ccc2S(=O)(=O)Nc2ncccn2)cc1 [Example 37, 5-Isobutyl-4′-((2-methyl-1H-imidazol-1-yl)methyl)-N-(pyrimidin-2-yl)-[1,1′-biphenyl]-2-sulfonamide]	> 1 h	> 1 h			0.58 nM	1.16 nM			
CC(C)Cc1ccc(S(=O)(=O)Nc2ncccn2)c(-c2ccc(Cn3ccnc3)cc2)c1 [Example 38, 4′-((1H-Imidazol-1-yl)methyl)-5-isobutyl-N-(pyrimidin-2-yl)-[1,1′-biphenyl]-2-sulfonamide]	0.967 h	> 1 h			1.38 nM	2.76 nM			
CC(C)Cc1ccc(S(=O)(=O)Nc2ncccn2)c(-c2ccc(Cn3ccnc3C(C)C)cc2)c1 [Example 39, 5-Isobutyl-4′-((2-isopropyl-1H-imidazol-1-yl)methyl)-N-(pyrimidin-2-yl)-[1,1′-biphenyl]-2-sulfonamide]	0.95 h	> 1 h							
CCc1nccn1Cc1ccc(-c2cc(CC(C)C)ccc2S(=O)(=O)Nc2ncccn2)cc1 [Example 40, 4′-((2-Ethyl-1H-imidazol-1-yl)methyl)-5-isobutyl-N-(pyrimidin-2-yl)-[1,1′-biphenyl]-2-sulfonamide]	0.75 h	> 1 h							
CC(C)Cc1ccc(S(=O)(=O)Nc2ncccn2)c(-c2ccc(Cn3ccnc3C3CC3)cc2)c1 [Example 41, 4′-((2-Cyclopropyl-1H-imidazol-1-yl)methyl)-5-isobutyl-N-(pyrimidin-2-yl)-[1,1′-biphenyl]-2-sulfonamide]	> 1 h	> 1 h							
CC(C)Cc1ccc(S(=O)(=O)Nc2ncccn2)c(-c2ccc(Cn3ccnc3C3CC3)c(F)c2)c1 [Example 42, 4′-((2-Cyclopropyl-1H-imidazol-1-yl)methyl)-3′-fluoro-5-isobutyl-N-(pyrimidin-2-yl)-[1,1′-biphenyl]-2-sulfonamide]	> 1 h	> 1 h							
CC(C)Cc1cc(-c2ccc(Cn3ccnc3C(C)(C)C)c(F)c2)c(S(=O)(=O)Nc2ncccn2)s1 [Example 43, 3-(4-((2-(tert-Butyl)-1H-imidazol-1-yl)methyl)-3-fluorophenyl)-5-isobutyl-N-(pyrimidin-2-yl)thiophene-2-sulfonamide]	> 1 h	> 1 h			0.3 nM	0.6 nM			
CC(C)Cc1cc(-c2ccc(Cn3ccnc3C(C)C)c(F)c2)c(S(=O)(=O)Nc2ncccn2)s1 [Example 46, 3-(3-Fluoro-4-((2-isopropyl-1H-imidazol-1-yl)methyl)phenyl)-5-isobutyl-N-(pyrimidin-2-yl)thiophene-2-sulfonamide]	> 1 h	> 1 h			0.33 nM	0.65 nM			
CC(C)Cc1cc(-c2ccc(Cn3ccnc3)c(F)c2)c(S(=O)(=O)Nc2ncccn2)s1 [Example 48, 3-(4-((1H-Imidazol-1-yl)methyl)-3-fluorophenyl)-5-isobutyl-N-(pyrimidin-2-yl)thiophene-2-sulfonamide]	> 1 h	> 1 h							
CC(C)Cc1cc(-c2ccc(Cn3ccnc3C3CC3)cc2)c(S(=O)(=O)Nc2ncccn2)s1 [Example 52, 3-(4-((2-Cyclopropyl-1H-imidazol-1-yl)methyl)phenyl)-5-isobutyl-N-(pyrimidin-2-yl)thiophene-2-sulfonamide]	> 1 h	> 1 h			0.77 nM	1.53 nM			
Cc1nccn1Cc1ccc(-c2cc(CC(C)C)ccc2S(=O)(=O)Nc2ncccn2)cc1F [Example 53, Potassium ((3′-fluoro-5-isobutyl-4′-((2-methyl-1H-imidazol-1-yl)methyl)-[1,1′-biphenyl]-2-yl)sulfonyl)(pyrimidin-2-yl)amide]						< 0.3 nM			0.25 nM
